Assay [1] deals with DNA polymerase. Put plainly: Primer extension reaction with XNTPs as substrates (additive screen and MGB titration), gel electrophoresis of Xpandomer products. Conditions: for enhancement of XNTP polymerization in titration: FIG. 5, MGB ranging from 75 to 600 μM, highest concentration most robust enhancement; for amount of MGB demonstrating reliable enhancement of XNTP polymerization: further titration experiments, FIG. 6. It counts as biochemical. From the text: However, initial transcription of the sequence of the natural DNA template onto the measurable Xpandomer relies on the ability of DNA polymerase to utilize XNTPs as substrates (the generalized structure of an XNTP is discussed herein with reference to FIG. 1A and FIG. 2). […] In an effort to improve the efficiency and accuracy of XNTP polymerization into Xpandomers, a wide variety of additives was screened for the ability to enhance DNA polymerase primer extension reactions using XNTPs as substrates.
A typical primer extension reaction includes the following reagents: 2 pmol primer, 2.2 pmol 45 mer oligonucleotide template, 50 pmol of each XNTP (XATP, XCTP, XGTP, and XTTP), 50 mM Tris HCl, pH 6.79, 200 mM NaCl, 20% PEG, 5% NMS, 0.5 nmol polyphosphate 60.19, 0.3 mM MnCl2, and 0.6 μg of purified recombinant DNA polymerase protein. Reactions are run for 1 hr at 23° C. Reaction products (i.e. constrained Xpandomers) are treated to cleave the phosphoramidate bonds, thereby generating linearized Xpandomers. Reaction products are analyzed using gel electrophoresis on 4-12% acrylamide gels to resolve and visualize Xpandomer products of different lengths. For the additive screen, reaction additives were typically tested in the micro to millimolar range.
Using the primer extension reaction described in Example 1, titration experiments were performed to determine the optimal amount of MGB for enhancement of XNTP polymerization.

Assay [2] relates to DNA polymerase. Put plainly: Sequencing by Expansion (SBX) of primer extension products, nanopore reads aligned to a 45 mer template. Particulars: FIG. 7B, no additive control not accurate past base 20. In kind it is biochemical. The protocol: To investigate the accuracy of enhancement of XNTP polymerization, primer extension products were sequenced using the SBX protocol. Briefly, the constrained Xpandomer products of XNTP polymerization are cleaved to generate linearized Xpandomers. This is accomplished by first quenching the extension reaction with a solution containing 100 mM EDTA, 2 mM THPTA, and 2% Tween-20. Then the sample is subjected to amine modification with a solution of 1 M NaHCO3 and 1 M succinic anhydride in DMF. Cleavage of the phosphoramidate bonds is carried out with 37% HCl and linearized Xpandomers are purified with QIAquick columns (QIAGEN, Inc.).
For sequencing, protein nanopores are prepared by inserting α-hemolysin into a DPhPE/hexadecane bilayer member in buffer B1, containing 2 M NH4Cl and 100 mM HEPES, pH 7.4. The cis well is perfused with buffer B2, containing 0.4 M NH4Cl, 0.6 M GuCl, and 100 mM HEPES, pH 7.4. The Xpandomer sample is heated to 70° C. for 2 minutes, cooled completely, then a 2 μL sample is added to the cis well. A voltage pulse of 90 mV/390 mV/10 μs is then applied and data is acquired via Labview acquisition software.
Sequence data was analyzed by histogram display of the population of sequence reads from a single SBX reaction. […]

The mark [3] stands for this setting: additive screen, primer extension with XNTPs, 1 hr at 23° C., additives typically tested in the micro to millimolar range.

Where a name gives a salt, the structure may show the parent alone. Read-outs that look alike come from different tables or passages of the source.

For the compound `NC(COP(=O)(O)O)C(=O)O` (racemic) [O-phospho-DL-serine], in assay [1] (setting [3]), the “Extension Effect” value is “Inhibitory”. As for `Nc1cc(C(=O)O)ccc1C(=O)O` [2-Aminoterephthalic acid], the “Extension Effect” value in assay [1] was “Inhibitory”. Turning to `Cl.Nc1ccc2cc3ccc(N)cc3nc2c1` [3,6-Diaminoacridine Hydrochloride, reference compound], in assay [1] (additive screen), the “effect on primer extension with XNTPs (summary of additive screen)” value (from here on “effect on primer extension with XNTPs”) was “significantly and reproducibly enhanced”. Also, in assay [1] (setting [3]), the “Extension Effect” value is given as “Beneficial”. As to `O=S(=O)([O-])CCC[n+]1ccccc1` [3-(1-pyridinio)-1-propanesulfonate], the “Extension Effect” value in assay [1] (setting [3]) was “No effect”. In the case of `Nc1cc(C(=O)O)cc(C(=O)O)c1` [5-Aminoisophthalic acid], the “Extension Effect” value in assay [1] (setting [3]) is listed as “Inhibitory”. As to `CCCCCCCCCCCCCC(=O)NCCC[N+](C)(C)CCCS(=O)(=O)[O-]` [ASB-14 (amidosulfobetaine)], in assay [1] (setting [3]), the “Extension Effect” value is reported as “No effect”. Same read-out and setting: under `CC(C)=O` [Acetone] stands “Beneficial”; under `CC#N` [Acetonitrile], “No effect”; under `N=C(N)NCCC[C@H](N)C(=O)O` [Arginine], “Inhibitory”. Consider `NCc1ccccc1` [Benzylamine], for which the “Extension Effect” value in assay [1] (setting [3]) is “No effect”.

Take `C[N+](C)(C)CC(=O)O` [Betaine]: in assay [1] (setting [3]), the “Extension Effect” value is recorded as “Inhibitory”.

On to `CCCCCCCc1ccc(C(O)CC[N+](C)(C)CCCS(=O)(=O)[O-])cc1` (stereo not drawn) [C7BzO], for which the “Extension Effect” value in assay [1] (setting [3]) is given as “No effect”. In the case of `N=C(N)c1ccc(-c2cc3ccc(C(=N)N)cc3[nH]2)cc1` [DAPI, reference compound], the “effect on XNTP polymerization reaction, gel of FIG. 4 (extension product length vs no-additive lane 1, around 14 XNTPs)” value in assay [1] (FIG. 4 representative gel) was “inhibitory effect”. Also, the “Extension Effect” value in assay [1] (setting [3]) was “No effect”. Turning to `C[S+](C)[O-]` [DMSO], the “Extension Effect” value in assay [1] (setting [3]) is reported as “Length increases”. On to `CN(C)C=O` [Dimethylformamide], for which the “Extension Effect” value in assay [1] (setting [3]) is “No effect”. For the compound `CC(=O)NCC(=O)O.CC(=O)NCC(=O)O.N=C(N)c1ccc(N=NNc2ccc(C(=N)N)cc2)cc1` [Diminazine Aceturate, reference compound], in assay [1] (setting [3]), the “Extension Effect” value is “No effect”. With `CCCCCCCCCCCC[N+](C)(C)C.[Cl-]` [Dodecyltrimethylammonium chloride], the “Extension Effect” value in assay [1] (setting [3]) was “Inhibitory”. For `C[N+](C)(C)CC(=O)NN.[Cl-]` [Girards Reagent T], the “Extension Effect” value in assay [1] (setting [3]) is given as “No effect”. With `OCC(O)CO` [Glycerol], the “Extension Effect” value in assay [1] (setting [3]) is on record as “No effect”. Take `CN1CCN(c2ccc3[nH]c(-c4ccc5[nH]c(-c6ccc(O)cc6)nc5c4)nc3c2)CC1` [Hoescht Stain solution 33258, reference compound]: the “accuracy of sequence reads of SBX sequencing” value in assay [2] is “increased the accuracy of the sequence reads completely to the end of the 45 mer template”. Further, in assay [1], the “enhancement of XNTP polymerization in titration” value (“enhancement … in titration” below) is given as “dose-dependent enhancement” and the “amount of MGB demonstrating reliable enhancement of XNTP polymerization” value was 0.6 mM. For the same compound, the “effect on primer extension with XNTPs” value in assay [1] (additive screen) is “significantly and reproducibly enhanced”. For the same compound, the “Extension Effect” value in assay [1] (setting [3]) is listed as “Beneficial”. For `CCOc1ccc(-c2nc3ccc(-c4nc5ccc(N6CCN(C)CC6)cc5[nH]4)cc3[nH]2)cc1` [Hoescht Stain solution 33342, reference compound], in assay [1], the “enhancement … in titration” value is reported as “dose-dependent enhancement” and the “amount of MGB demonstrating reliable enhancement of XNTP polymerization” value is reported as 0.8 mM. The “effect on primer extension with XNTPs” value in assay [1] (additive screen) is “significantly and reproducibly enhanced”. Further, the “Extension Effect” value in assay [1] (setting [3]) was “Beneficial”. On to `CN1CCN(c2ccc3nc(-c4ccc5nc(-c6ccc(N(C)C)cc6)[nH]c5c4)[nH]c3c2)CC1` [Hoescht Stain solution 34580, reference compound], for which the “effect on primer extension with XNTPs” value in assay [1] (additive screen) was “significantly and reproducibly enhanced”. The “Extension Effect” value in assay [1] (setting [3]) was “Beneficial”. As to `c1c[nH]cn1` [Imidazole], the “Extension Effect” value in assay [1] (setting [3]) is listed as “No effect”.

Take `[Mg+2]` [Magnesium]: the “Extension Effect” value in assay [1] (setting [3]) is reported as “Inhibitory”.

On to `CCCCCCCCCCCCN(C)CC(=O)O` [N-Lauryl Sarcosine], for which, in assay [1] (setting [3]), the “Extension Effect” value is “Inhibitory”. As for `CN1C(=O)CCC1=O` [N-methyl succinimide], in assay [1] (setting [3]), the “Extension Effect” value is “Beneficial”. For `[Cl-].[Na+]` [NaCl], in assay [1], the “Extension Effect” value was “Beneficial”. In the case of `Cn1cc(NC(=O)c2cc(NC(=O)CN=C(N)N)cn2C)cc1C(=O)NCCC(=N)N` [Netropsin dihydrochloride, reference compound], in assay [1], the “enhancement … in titration” value is reported as “dose-dependent enhancement”. Besides, the “effect on primer extension with XNTPs” value in assay [1] (additive screen) was “significantly and reproducibly enhanced”. In assay [1] (setting [3]), the “Extension Effect” value is on record as “Beneficial”.

As to `O=S(=O)([O-])[O-].[Ni+2]` [NiSO4], the “Extension Effect” value in assay [1] (setting [3]) is “Inhibitory”. On to `C[N+](=O)[O-]` [Nitromethane], for which the “Extension Effect” value in assay [1] (setting [3]) is listed as “Inhibitory”. On the same count and under the same terms, under `N[C@@H](Cc1ccc(OP(=O)(O)O)cc1)C(=O)O` [O-Phospho-L-tyrosine] stands “Inhibitory”. For the compound `N=C(N)c1ccc(OCCCCCOc2ccc(C(=N)N)cc2)cc1` [Pentamidine isethionate salt, reference compound], the “Extension Effect” value in assay [1] (setting [3]) was “No effect”.

Regarding `O=C(/C=C/C=C/c1ccc2c(c1)OCO2)N1CCCCC1` [Piperdine], the “Extension Effect” value in assay [1] (setting [3]) is recorded as “Inhibitory”. With `[Cl-].[K+]` [Potassium Chloride], the “Extension Effect” value in assay [1] (setting [3]) was “No effect”. As for `CC1COC(=O)O1` (stereo not drawn) [Propylene carbonate], in assay [1] (setting [3]), the “Extension Effect” value was “Inhibitory”. Regarding `CCCCCC(=O)[O-].[Na+]` [Sodium Hexanoate], the “Extension Effect” value in assay [1] (setting [3]) was “No effect”. As for `CCCCCCCCCCCCOS(=O)(=O)[O-].[Na+]` [Sodium docecyl sulfate], the “Extension Effect” value in assay [1] (setting [3]) is “No effect”. In the case of `CCCCCCCCCCCCC/C=C/[C@@H](O)[C@@H](N)CO` [Sphingosine], the “Extension Effect” value in assay [1] (setting [3]) is given as “No effect”. `C[N+](C)(C)C.[Cl-]` [TMACl]: the “Extension Effect” value in assay [1] (setting [3]) was “No effect”. `C[N+](C)(C)[O-]` [TMAO]: the “Extension Effect” value in assay [1] (setting [3]) is reported as “Variable effects”. On to `C1CCOC1` [Tetrahydrofuran], for which the “Extension Effect” value in assay [1] (setting [3]) is recorded as “No effect”. `CC(=O)O.CCN(CC)CC` [Triethylamine acetate]: the “Extension Effect” value in assay [1] (setting [3]) was “Inhibitory”. `NC(N)=O` [Urea]: the “Extension Effect” value in assay [1] (setting [3]) is on record as “Beneficial”. In the case of CDPI3 [reference compound], in assay [1] (setting [3]), the “Extension Effect” value is given as “Variable effects”. For Triton, the “Extension Effect” value in assay [1] (setting [3]) is “No effect”.

The values are drawn from patent US20210139966A1, “ENHANCEMENT OF NUCLEIC ACID POLYMERIZATION BY MINOR GROOVE BINDING MOIETIES” (priority 2018, published 2021).
